From patent US20240390471A1, “COMPOUNDS AND ADJUVANT FORMULATIONS USEFUL IN PNEUMOCOCCAL VACCINES” (Merck Sharp & Dohme LLC, priority 2023, published 2024)

Legend:
human TLR7 = target: T1, human TLR7 (Homo sapiens, UniProt Q9NYK1); experiment: Cell-based TLR 7/8 assay, HEK-Blue TLR7 cells (SEAP reporter); conditions: based on Compound concentration only; Compounds formulated as SNEs; read-out: huTLR7 EC50 (converted)
T1 construct: host or cells: HEK-Blue 293 cells expressing human TLR7
T1 sequence (Q9NYK1 27-1049): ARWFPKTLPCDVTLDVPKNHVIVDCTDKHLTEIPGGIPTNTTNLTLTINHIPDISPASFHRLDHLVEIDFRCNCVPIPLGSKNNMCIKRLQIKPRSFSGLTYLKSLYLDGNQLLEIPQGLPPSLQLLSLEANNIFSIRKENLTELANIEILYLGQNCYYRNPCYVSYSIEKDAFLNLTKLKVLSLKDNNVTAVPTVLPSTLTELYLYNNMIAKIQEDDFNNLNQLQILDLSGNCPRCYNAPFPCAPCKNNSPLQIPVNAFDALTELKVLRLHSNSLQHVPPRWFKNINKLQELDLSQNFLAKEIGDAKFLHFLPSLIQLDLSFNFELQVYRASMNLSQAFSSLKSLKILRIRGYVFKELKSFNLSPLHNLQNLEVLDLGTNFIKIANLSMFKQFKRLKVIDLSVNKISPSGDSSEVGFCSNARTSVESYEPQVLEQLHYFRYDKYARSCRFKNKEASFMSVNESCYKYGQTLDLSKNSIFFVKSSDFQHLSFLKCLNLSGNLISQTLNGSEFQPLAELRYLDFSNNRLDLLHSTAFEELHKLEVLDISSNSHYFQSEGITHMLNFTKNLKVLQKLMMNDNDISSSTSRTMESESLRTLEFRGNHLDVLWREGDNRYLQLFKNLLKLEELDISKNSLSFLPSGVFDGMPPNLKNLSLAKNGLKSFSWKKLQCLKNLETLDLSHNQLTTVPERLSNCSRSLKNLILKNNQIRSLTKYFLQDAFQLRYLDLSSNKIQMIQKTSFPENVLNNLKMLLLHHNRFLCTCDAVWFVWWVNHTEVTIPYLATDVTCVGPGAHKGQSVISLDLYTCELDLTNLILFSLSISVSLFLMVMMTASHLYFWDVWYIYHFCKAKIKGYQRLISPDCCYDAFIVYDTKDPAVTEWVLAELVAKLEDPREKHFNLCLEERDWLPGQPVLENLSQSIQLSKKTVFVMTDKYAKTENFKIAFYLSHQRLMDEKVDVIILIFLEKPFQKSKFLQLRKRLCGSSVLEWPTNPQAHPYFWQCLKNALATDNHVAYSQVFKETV
Experimental: (§1) HEK-Blue™ TLR7 and TLR8 cells (InvivoGen) were designed to assess the stimulation of TLR7 and TLR8 by monitoring the activation of NF-κB and AP-1. Compound B-1-SNE samples were diluted 1:2 across an 8-point titration in diluent buffer histidine/PS-20 in a sterile V-bottom plate. 20 μL of samples were transferred to corresponding wells of two flat bottom assay plates. Media was aspirated from HEK-Blue™ human TLR 7 and TLR 8 cells (T-75 flasks) and gently rinsed with pre-warmed (37° C.) DPBS for a total volume of 5 mL/flask. The DPBS was gently removed from the cells and cells were gently manually dislodged and resuspended in 2 mL of DPBS. Cell assay suspensions were then prepared at approximately 2.2×10^5 cells per mL of HEK-Blue™ detection medium (InvivoGen). 180 μL of cell suspension in detection medium was added to each well of the two flat bottom assay plates containing the diluted Compound B-1-SNE samples for a final dilution of sample equaling 1:10 (180 μL of cell suspension in detection medium and 20 μL of sample). The cells were then incubated at 37° C. in 5% CO2 for 20 hrs. The reporter gene, NF-Kb, induces the production of secreted embryonic alkaline phosphatase (SEAP) when stimulated and can be monitored using the vendor supplied SEAP detection kit. SEAP colorimetric changes were read at an absorbance of 640 nm using a SpectroMax Stakmax plate reader. […] EC50 values were calculated based on total Compound B-1-SNE concentration using GraphPad Prism Software and analyzed using agonist vs. response variable slope (four parameters) least squares fit.
(§2) Further to the description in Example 10, a cell-based activation system was used to assess activity of the Compound-formulated nanoemulsion systems, prepared as described in examples, supra. HEK-Blue™ TLR7 and TLR8 cells (InvivoGen) were designed to assess the stimulation of TLR7 and TLR8 by monitoring the activation of NF-κB and AP-1. Compound-SNE samples were diluted 1:2 across an 8-point titration in diluent buffer histidine/PS-20 in a sterile V-bottom plate. 20 μL of samples were transferred to corresponding wells of two flat bottom assay plates. Media was aspirated from HEK-Blue™ human TLR 7 and TLR 8 cells (T-75 flasks) and gently rinsed with pre-warmed (37° C.) DPBS for a total volume of 5 mL/flask. The DPBS was gently removed from the cells and cells were gently manually dislodged and resuspended in 2 mL of DPBS. Cell assay suspensions were then prepared at approximately 2.2×10^5 cells per mL of HEK-Blue™ detection medium (InvivoGen). 180 μL of cell suspension in detection medium was added to each well of the two flat bottom assay plates containing the diluted Compound-SNE samples for a final dilution of sample equaling 1:10 (180 μL of cell suspension in detection medium and 20 μL of sample). The cells were then incubated at 37° C. in 5% CO2 for 20 hrs. The reporter gene, NF-Kb, induces the production of secreted embryonic alkaline phosphatase (SLAP) when stimulated and can be monitored using the vendor supplied SLAP detection kit. SLAP colorimetric changes were read at an absorbance of 640 nm using a SpectroMax Stakmax plate reader. EC50s were calculated based on Compound concentration only, not total Compound-SNE concentration (Table 6) using GraphPad Prism Software and analyzed using agonist vs. response variable slope (four parameters) least squares fit.

human TLR8 = target: T2, human TLR8 (Homo sapiens, UniProt Q9NR97); experiment: Cell-based TLR 7/8 assay, HEK-Blue TLR8 cells (SEAP reporter); conditions: based on Compound concentration only; Compounds formulated as SNEs; read-out: huTLR8 EC50 (converted)
T2 construct: host or cells: HEK-Blue 293 cells expressing human TLR8
T2 sequence (Q9NR97 27-1041): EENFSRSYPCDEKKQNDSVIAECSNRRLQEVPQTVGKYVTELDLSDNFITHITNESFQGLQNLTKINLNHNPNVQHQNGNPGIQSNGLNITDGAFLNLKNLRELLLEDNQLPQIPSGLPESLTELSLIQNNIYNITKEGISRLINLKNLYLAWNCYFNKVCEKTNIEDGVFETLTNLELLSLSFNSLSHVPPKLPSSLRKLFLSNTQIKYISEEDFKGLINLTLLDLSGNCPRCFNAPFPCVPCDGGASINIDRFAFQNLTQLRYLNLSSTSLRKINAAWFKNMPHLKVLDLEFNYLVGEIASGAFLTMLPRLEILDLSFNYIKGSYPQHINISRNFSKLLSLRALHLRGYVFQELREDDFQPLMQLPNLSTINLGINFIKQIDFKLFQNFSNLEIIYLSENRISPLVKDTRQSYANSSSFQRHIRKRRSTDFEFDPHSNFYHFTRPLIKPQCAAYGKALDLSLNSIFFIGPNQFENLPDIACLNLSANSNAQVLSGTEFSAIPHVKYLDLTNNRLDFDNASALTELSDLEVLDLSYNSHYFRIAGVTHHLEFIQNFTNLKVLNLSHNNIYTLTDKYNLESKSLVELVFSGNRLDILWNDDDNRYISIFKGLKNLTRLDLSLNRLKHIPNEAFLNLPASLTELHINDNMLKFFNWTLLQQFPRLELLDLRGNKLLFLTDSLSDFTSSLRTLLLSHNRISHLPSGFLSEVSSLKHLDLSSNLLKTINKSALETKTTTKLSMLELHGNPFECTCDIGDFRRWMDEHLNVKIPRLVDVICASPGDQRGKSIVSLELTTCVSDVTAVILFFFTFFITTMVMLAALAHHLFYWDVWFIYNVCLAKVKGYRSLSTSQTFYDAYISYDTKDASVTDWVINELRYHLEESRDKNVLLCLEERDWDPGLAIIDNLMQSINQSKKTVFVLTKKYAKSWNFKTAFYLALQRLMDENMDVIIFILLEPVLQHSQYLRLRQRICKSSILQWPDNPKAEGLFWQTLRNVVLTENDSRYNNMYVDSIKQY
Experimental: as §1, §2

| SMILES | EC50 (human TLR7) [nM] | EC50 (human TLR8) [nM] |
| --- | --- | --- |
| CCCCCCCCCCCCCCCCCC(=O)NCCC(=O)N1CCN(c2ccc(Cn3cc4nc(N)nc(NCCCC)c4n3)c(OC)c2)CC1 [Compound B-11, N-(3-(4-(4-((5-amino-7-(butylamino)-2H-pyrazolo[4,3-d]pyrimidin-2-yl)methyl)-3-methoxyphenyl)piperazin-1-yl)-3-oxopropyl)stearamide] | 3070 | 401 |
| CCCCCCCCCCCCCCCCCC(=O)NCCCCCCC(=O)N1CCN(c2ccc(Cn3cc4nc(N)nc(NCCCC)c4n3)c(OC)c2)CC1 [Compound B-12, N-(7-(4-(4-((5-amino-7-(butylamino)-2H-pyrazolo[4,3-d]pyrimidin-2-yl)methyl)-3-methoxyphenyl)piperazin-1-yl)-7-oxoheptyl)stearamide] | 23400 | 25500 |
| CCCCCCCCCCCCCCCCCC(=O)NC1CC(CC(=O)N2CCN(c3ccc(Cn4cc5nc(N)nc(NCCCC)c5n4)c(OC)c3)CC2)C1 (stereo not shown) [Compound B-13, N-(3-(2-(4-(4-((5-amino-7-(butylamino)-2H-pyrazolo[4,3-d]pyrimidin-2-yl)methyl)-3-methoxyphenyl)piperazin-1-yl)-2-oxoethyl)cyclobutyl)stearamide] | 85900 | 3020 |
| CCCCCCCCCCCCCCCCCC(=O)NCCCC(C)(C)C(=O)N1CCN(c2ccc(Cn3cc4nc(N)nc(NCCCC)c4n3)c(OC)c2)CC1 [Compound B-14, N-(5-(4-(4-((5-amino-7-(butylamino)-2H-pyrazolo[4,3-d]pyrimidin-2-yl)methyl)-3-methoxyphenyl)piperazin-1-yl)-4,4-dimethyl-5-oxopentyl)stearamide] | 135000 | 11900 |
| CCCCCCCCCCCCCCCCCC(=O)NCCCCC(=O)N1CCN(c2ccc(Cn3nc4c(NCCCC)nc(N)nc4c3C)c(OC)c2)CC1 [Compound B-18, N-(5-(4-(4-((5-amino-7-(butylamino)-3-methyl-2H-pyrazolo[4,3-d]pyrimidin-2-yl)methyl)-3-methoxyphenyl)piperazin-1-yl)-5-oxopentyl)stearamide] | 316 | 215 |

The next lines start with the values.

| EC50 (human TLR7) [nM] | EC50 (human TLR8) [nM] | SMILES |
| --- | --- | --- |
| 259 | 95.5 | CCCCC/C=C\C/C=C\CCCCCCCC(=O)NCCCCN(C)Cc1cc(OC)c(Cn2cc3nc(N)nc(NCCCC)c3n2)c(OC)c1 [Compound C-1, (9Z,12Z)—N-(4-((4-((5-amino-7-(butylamino)-2H-pyrazolo[4,3-d]pyrimidin-2-yl)methyl)-3,5-dimethoxybenzyl)(methyl)amino)butyl)octadeca-9,12-dienamide] |
| 338 | 176 | CCCCCCCCCCCCCC(=O)NCCCCN(C)Cc1cc(OC)c(Cn2cc3nc(N)nc(NCCCC)c3n2)c(OC)c1 [Compound C-2, N-(4-((4-((5-amino-7-(butylamino)-2H-pyrazolo[4,3-d]pyrimidin-2-yl)methyl)-3,5-dimethoxybenzyl)(methyl)amino)butyl)tetradecanamide] |
| 503 | 163 | CCCCCCCC/C=C\CCCCCCCC(=O)NCCCCN(C)Cc1cc(OC)c(Cn2cc3nc(N)nc(NCCCC)c3n2)c(OC)c1 [Compound C-3, N-(4-((4-((5-amino-7-(butylamino)-2H-pyrazolo[4,3-d]pyrimidin-2-yl)methyl)-3,5-dimethoxybenzyl)(methyl)amino)butyl)oleamide] |
| 4950 | 1170 | CCCCCCCCCCCCCCCCCC(=O)NCCCCN(C)Cc1cc(OC)c(Cn2cc3nc(N)nc(NCCCC)c3n2)c(OC)c1 [Compound C-4, N-(4-((4-((5-amino-7-(butylamino)-2H-pyrazolo[4,3-d]pyrimidin-2-yl)methyl)-3,5-dimethoxybenzyl)(methyl)amino)butyl)stearamide] |
| 639 | 93.2 | CCCCCCCCCCCCCCCCCC(=O)NCCCC(=O)N(C)Cc1cc(OC)c(Cn2cc3nc(N)nc(NCCCC)c3n2)c(OC)c1 [Compound C-5, N-(4-((4-((5-amino-7-(butylamino)-2H-pyrazolo[4,3-d]pyrimidin-2-yl)methyl)-3,5-dimethoxybenzyl)(methyl)amino)-4-oxobutyl)stearamide] |
| 17200 | 155000 | CCCCC/C=C\C/C=C\CCCCCCCCC(CCCCCCCC/C=C\C/C=C\CCCCC)OC(=O)NCCCCN(C)Cc1cc(OC)c(Cn2cc3nc(N)nc(NCCCC)c3n2)c(OC)c1 [Compound D-1, (6Z,9Z,28Z,31Z)-heptatriaconta-6,9,28,31-tetraen-19-yl (4-((4-((5-amino-7-(butylamino)-2H-pyrazolo[4,3-d]pyrimidin-2-yl)methyl)-3,5-dimethoxybenzyl)(methyl)amino)butyl)carbamate] |
